In patent US10093611B2, “Benzocycloalkenes as antifungal agents” (Bayer Intellectual Property GmbH, priority 2010, dated 2018):

Experiments:
[1] = log P by HPLC on reversed-phase column (C 18), EEC Directive 79/831 Annex V.A8; format: physicochemical; conditions: C 18 reversed phase, 40° C., 0.1% aqueous formic acid and acetonitrile gradient
Protocol: In table 1, the log P values were determined in accordance with EEC Directive 79/831 Annex V.A8 by HPLC (High Performance Liquid Chromatography) on a reversed-phase column (C 18), using the method described below: Temperature: 40° C.; Mobile phases: 0.1% aqueous formic acid and acetonitrile; linear gradient from 10% acetonitrile to 90% acetonitrile. Calibration was carried out using unbranched alkan-2-ones (comprising 3 to 16 carbon atoms) with known log P values (determination of the log P values by the retention times using linear interpolation between two successive alkanones). lambda-max-values were determined using UV-spectra from 200 nm to 400 nm and the peak values of the chromatographic signals.

Pyrenophora teres = assay: In vivo preventive test on Pyrenophora teres (barley); conditions: 500 ppm of active ingredient, evaluated 7-9 days after inoculation
Protocol: EXAMPLE F: IN VIVO PREVENTIVE TEST ON PYRENOPHORA TERES (BARLEY) Solvent: 49 parts by weight of N,N-dimethylformamide Emulsifier: 1 part by weight of Alkylarylpolyglycolether To produce a suitable preparation of active compound, 1 part by weight of active compound is mixed with the stated amounts of solvent and emulsifier, and the concentrate is diluted with water to the desired concentration. To test for preventive activity, young plants are sprayed with the preparation of active compound at the stated rate of application. One day after this treatment, the plants are inoculated with an aqueous spore suspension of Pyrenophora teres. The plants remain for 48 hours in an incubation cabinet at 22° C. and a relative atmospheric humidity of 100%. Then the plants are placed in a greenhouse at a temperature of approximately 20° C. and a relative atmospheric humidity of approximately 80%. The test is evaluated 7-9 days after the inoculation. 0% means an efficacy which corresponds to that of the untreated control while an efficacy of 100% means that no disease is observed. Under these conditions, high (at least 90%) to total protection is observed at a dose of 500 ppm of active ingredient with the following compounds from table F: […]

Alternaria solani = assay: In vivo preventive test on Alternaria solani (tomato); conditions: 500 ppm of active ingredient, evaluated 7 days after inoculation
Protocol: EXAMPLE A: IN VIVO PREVENTIVE TEST ON ALTERNARIA SOLANI (TOMATO) Solvent: 49 parts by weight of N,N-dimethylformamide Emulsifier: 1 part by weight of Alkylarylpolyglycolether To produce a suitable preparation of active compound, 1 part by weight of active compound is mixed with the stated amounts of solvent and emulsifier, and the concentrate is diluted with water to the desired concentration. To test for preventive activity, young plants are sprayed with the preparation of active compound at the stated rate of application. One day after this treatment, the plants are inoculated with an aqueous spore suspension of Alternaria solani. The plants remain for one day in an incubation cabinet at approximately 22° C. and a relative atmospheric humidity of 100%. Then the plants are placed in an incubation cabinet at approximately 20° C. and a relative atmospheric humidity of 96%. The test is evaluated 7 days after the inoculation. 0% means an efficacy which corresponds to that of the control while an efficacy of 100% means that no disease is observed. Under these conditions, good (at least 80%) to total protection is observed at a dose of 500 ppm of active ingredient with the following compounds from table A: […]

Leptosphaeria nodorum = assay: In vivo preventive test on Leptosphaeria nodorum (wheat); conditions: 500 ppm of active ingredient, evaluated 8 days after inoculation
Protocol: EXAMPLE D: IN VIVO PREVENTIVE TEST ON LEPTOSPHAERIA NODORUM (WHEAT) Solvent: 49 parts by weight of N,N-dimethylacetamide Emulsifier: 1 part by weight of alkylaryl polyglycol ether To produce a suitable preparation of active compound, 1 part by weight of active compound or the compound combination is mixed with the stated amounts of solvent and emulsifier, and the concentrate is diluted with water to the desired concentration. To test for protective activity, young plants are sprayed with a preparation of active compound or active compound combination at the stated rate of application. After the spray coating has dried on, the plants are sprayed with a spore suspension of Leptosphaeria nodorum. The plants remain for 48 hours in an incubation cabinet at 20° C. and a relative atmospheric humidity of 100%. The plants are placed in a greenhouse at a temperature of approximately 22° C. and a relative atmospheric humidity of approximately 80%. The test is evaluated 8 days after the inoculation. 0% means an efficacy which corresponds to that of the control, while an efficacy of 100% means that no disease is observed. Under these conditions, good (at least 75%) to total protection is observed at a dose of 500 ppm of active ingredient with the following compounds from table D: Under the same conditions, excellent protection (greater than 94%) is observed at a dose of 500 ppm of active ingredient with compound 2, whereas poor protection (less than 30%) is observed with the isosteric analogue compound CMP1 claimed in WO-2009/016218 as in table D2.

Puccinia triticina = assay: In vivo preventive test on Puccinia triticina (wheat); conditions: 500 ppm of active ingredient, evaluated 8 days after inoculation
Protocol: EXAMPLE E: IN VIVO PREVENTIVE TEST ON PUCCINIA TRITICINA (WHEAT)
Solvent: 49 parts by weight of N,N-dimethylacetamide
Emulsifier: 1 part by weight of alkylaryl polyglycol ether
To produce a suitable preparation of active compound, 1 part by weight of active compound or active compound combination is mixed with the stated amounts of solvent and emulsifier, and the concentrate is diluted with water to the desired concentration.
To test for preventive activity, young plants are sprayed with the preparation of active compound or active compound combination at the stated rate of application.
After the spray coating has been dried, the plants are sprayed with a spore suspension of Puccinia triticina. The plants remain for 48 hours in an incubation cabinet at approximately 20° C. and a relative atmospheric humidity of approximately 100%.
The plants are placed in the greenhouse at a temperature of approximately 20° C. and a relative atmospheric humidity of approximately 80%.
The test is evaluated 8 days after the inoculation. 0% means an efficacy which corresponds to that of the untreated control, while an efficacy of 100% means that no disease is observed.
Under these conditions, high (at least 85%) to total protection is observed at a dose of 500 ppm of active ingredient with the following compounds from table E: […]

| Structure (SMILES) | chromatographic logP ([1]; reversed-phase HPLC column (C 18)) | Efficacy (Pyrenophora teres) [%] | Efficacy (Alternaria solani) [%] | Efficacy (Leptosphaeria nodorum) [%] | Efficacy (Puccinia triticina) [%] | logP [1] |
| --- | --- | --- | --- | --- | --- | --- |
| CC(C1Cc2ccccc2C1)N(C(=O)c1c(C(F)F)nn(C)c1F)C1CC1 (stereo not drawn) [Example 14, N-cyclopropyl-3-(difluoromethyl)-N-[1-(indan-2-yl)ethyl]-5-fluoro-1-methyl-1H-pyrazole-4-carboxamide] | 3.76 | 100 | 95 | 100 | 100 | – |
| CC(C1CCc2ccccc2C1)N(C(=O)c1c(C(F)F)nn(C)c1F)C1CC1 (stereo not drawn) [Example 16] | – | 100 | 95 | 86 | 100 | 3.99 |
| CCc1nn(C)c(F)c1C(=O)N(C1CC1)C(C)C1Cc2ccccc2C1 (stereo not drawn) [Example 12] | – | 100 | 100 | 100 | 100 | 3.67 |
| Cc1nn(C)c(F)c1C(=O)N(C1CC1)C(C)C1Cc2ccccc2C1 (stereo not drawn) [Example 11] | – | 100 | 100 | 100 | 100 | 3.25 |
| CC(C1Cc2ccccc2C1)N(C(=O)c1cn(C)nc1C(F)F)C1CC1 (stereo not drawn) [Example 13] | – | 100 | 100 | 100 | 100 | 3.33 |
| CCC(C1CCc2ccccc2C1)N(C(=O)c1c(C(F)F)nn(C)c1F)C1CC1 (stereo not drawn) [Example 17] | – | 100 | 80 | 80 | 88 | 4.41 |
